Results on five molecules are retold here after patent US20240201172A1, “USE OF ODORANT RECEPTOR FOR SUPPRESSING LACTATE-INDUCED M2-TYPE DIFFERENTIATION OF TUMOR-ASSOCIATED MACROPHAGES AND TUMOR GROWTH” (KYUNGPOOK NATIONAL UNIVERSITY INDUSTRY-ACADEMIC COOPERATION …, priority 2021, published 2024).

Common to all, as to assay type: cell-based
One assay relates to lactate dehydrogenase. Nature of the assay: Lactate concentration in TCM of mouse tumor cell lines pretreated with oxamic acid. The note with it: pretreatment of mouse tumor cell lines, FIG. 4A. The method, then:
The concentrations of lactate and acetate in TCM of cells cultured at 80% confluency were measured using lactate and acetate colorimetric assay kits (BioVision, Milpitas, CA). Briefly, 50 μL of TCM was mixed with lactate or acetate enzyme mix and the probe according to the manual and reacted for 30 min at room temperature. The concentrations of cytokines in the conditioned medium of macrophages were measured using cytokine ELISA kits (R&D Systems). Briefly, 100 μL of conditioned medium was added to plates precoated with antibodies against IL-4, IL-10, and TGF-β. Samples were reacted with corresponding antibodies conjugated to biotin and then with horseradish peroxidase-labeled streptavidin. Absorbance at 570 nm was measured using a microplate reader. The concentrations of lactate, acetate, and cytokines were calculated from the standard curves.
To determine, though lactate is known to be important in M2 macrophage polarization, whether lactate is the main factor in TCM responsible for Olfr78-mediated M2 macrophage polarization, the prevent inventors treated WT BMDMs with TCM of mouse tumor cell lines pretreated with oxamic acid (OA), an inhibitor of lactate dehydrogenase that prevents lactate production. […] Up-regulation of M2 markers was attenuated (P<0.05) in WT BMDMs treated with lactate-depleted TCM (TCM+OA). […]

A further assay relates to BMDMs. The assay can be described thus: M1/M2 polarization of mouse BMDMs (flow cytometry, qRT-PCR, cell shape). The settings on record: for Olfr78 expression: BMDMs differentiated into M2 or M1 macrophages, FIG. 1B. The method, then:
BMDMs were isolated from tibias and femurs of C57BL6 or Balb/c mice and cultured in DMEM supplemented with 10 ng/mL macrophage colony-stimulating factor (Gibco, Carlsbad, CA) and 10% FBS for 7 d. The culture medium was changed every other day. For M1 polarization, BMDMs were cultured with 20 ng/mL recombinant mouse IFN-γ (R&D Systems) plus 100 ng/mL LPS for 24 to 48 h. For M2 polarization, BMDMs were cultured with 20 ng/mL recombinant mouse IL-4 for 24 to 48 h. For lactate-mediated M2 polarization, BMDMs were treated with 10 mM lactate (Sigma-Aldrich, St. Louis, MO) at 37° C. in a humidified atmosphere containing 5% CO2 for 24 to 48 h.
(§1) Anti-CD11b, anti-CD3, anti-CD4, anti-CD8, anti-CD86, anti-F4/80, anti-CD206, anti-CD163, and anti-Gr1 antibodies were purchased from BioLegend (San Diego, CA). An anti-Olfr78 antibody was purchased from LSBio (Seattle, WA). Anti-CD206 and anti-CD86 antibody was purchased from Santa Cruz Biotechnology (Dallas, TX). Cells were fixed with 4% paraformaldehyde and then reacted with an untagged primary antibody or a dye-tagged antibody at 4° C. for 30 min in the dark. Cells treated with an untagged primary antibody (anti-Olfr78, anti-CD206, and anti-CD86) were washed and reacted with a dye-tagged secondary antibody. At least 10,000 or more events were analyzed using a flow cytometer (BD Bioscience, San Jose, CA). Data were evaluated using CellQuest Pro software (BD Biosciences). To prepare cell suspensions from tumor tissues, freshly excised tumors were fragmented into several pieces, minced into 2-3 mm^3 pieces, and reacted with collagenase D (Roche, Basel, Switzerland) and DNase (Sigma-Aldrich) at 37° C. for 40 min. The tissue samples were filtered through a 100 μm cell strainer (Falcon, Corning, NY) to collect digested cells. Collected cells were resuspended in phosphate-buffered saline containing FBS and subjected to flow cytometry.
(§2) Cells were lysed using QIAzol lysis reagent (Qiagen, Hilden, Germany). RNA was isolated from cell lysates using an miRNeasy Mini Kit (Qiagen) and subjected to qRT-PCR. Primers targeting Arg1, IL-10, IL-4, TGF-0, IL-12p40, IFN-γ, and R-actin were obtained from Bioneer Inc. (Daejeon, Korea). cDNA was synthesized using a PrimeScript 1st cDNA Synthesis Kit (Takara, Shiga, Japan). qPCR using SYBR Green (Qiagen) was performed on a real time cycler (Bio-Rad, Hercules, CA). R-Actin was used as an endogenous control. Data used to determine relative expression were analyzed according to the Livak method.
To examine the involvement of Olfr78 in lactate-induced M2 polarization of macrophages, the present inventors conducted investigation on whether Olfr78 was expressed in BMDMs isolated from Olfr78^+/+ (WT) and Olfr78^−/− mice. […] Next, the present inventors differentiated BMDMs into M1 and M2 macrophages to investigate whether the expression level of Olfr78 was regulated according to macrophage polarization. Lactate, TCM, and IL-4 were used to stimulate M2 polarization, while lipopolysaccharide (LPS) plus interferon (IFN)-γ (L+I) was used to stimulate M1 polarization. […] To investigate the effect of Olfr78 on macrophage polarization, the present inventors measured the protein levels of M2 macrophage markers such as CD206 (FIG. 1C) and the mRNA levels of IL-4, IL-10, and TGF-β(FIGS. 1E-G), as well as M1 macrophage markers such as CD86 (FIG. 1D) and the mRNA levels of IL-12 and IFN-γ (FIGS. 1H and 1I) when WT and Olfr78^−/− BMDMs were differentiated into M1 and M2 macrophages. […] Next, the present inventors restored Olfr78 expression in Olfr78^−/− BMDMs by transfecting them with a Flag-tagged Olfr78 expression vector.
(In general: In flow cytometry, cells or beads pass a laser one at a time.)

Assay [1] concerns THP-1 human immortalized monocytes. The assay can be described thus: M1/M2 polarization of PMA-treated THP-1 human monocytes. The settings on record: for M1 markers such as iNOS, CD86, TNF-α, and IL-12B / M2 markers such as Arg-1, CD163, CD206, and IL-10: OR51E2-depleted THP1 cells vs untreated; for M1 markers such as iNOS, CD86, TNF-α, and IL-12B: FIGS. 3D, 3E, 3I-K; for M2 markers such as Arg-1, CD163, CD206, and IL-10: FIGS. 3D-H; for protein and mRNA levels of OR51E2: FIGS. 2B, 2C; for levels of M2 macrophage markers such as Arg1, CD206, CD163, and IL-10: FIGS. 2D-H. Here is the method: as §1, §2
For coimmunoprecipitation assays, cells were lysed with M-PER Mammalian Protein Extraction Reagent (ThermoFisher Scientific, Waltham, MA). Cell lysates were reacted with 2 μg of an antibody against Olfr78 or Gpr132 at 4° C. overnight and then with 100 μl of protein A-agarose beads (ThermoFisher Scientific) at 4° C. for 4 h with agitation. The beads were boiled, and the eluates were subjected to Western blotting with an antibody against Olfr78 or Gpr132. 40 μg of protein was electrophoresed on a 10% SDS-PAGE gel and transferred to a membrane (MilliPore, Burlington, MA). The membrane was reacted with antibodies against iNOS (Abcam, Cambridge, UK), Arg1 (Abcam), and R-actin (Santa Cruz Biotechnology) at 4° C. overnight followed by secondary antibody at room temperature for 2 h, and then exposed to a chemiluminescence substrate (ThermoFisher Scientific). Signals were visualized using an LAS1000 enhanced chemiluminescence detection system (Fuji Film, Minato, Tokyo).
To examine the effect of ORs on M2 polarization of human macrophages, THP-1 human immortalized monocytes were treated with phorbol myristate acetate (PMA) and then with L+I, IL-4, TCM, or lactate.

A further assay concerns the target T1, Olfr78/Gpr132 (Mus musculus, UniProt Q8VBV9+Q9Z282).
T1 construct: expressed in transfected cells; host or cells: Hana3A cells
T1 sequence (Q8VBV9 1-320): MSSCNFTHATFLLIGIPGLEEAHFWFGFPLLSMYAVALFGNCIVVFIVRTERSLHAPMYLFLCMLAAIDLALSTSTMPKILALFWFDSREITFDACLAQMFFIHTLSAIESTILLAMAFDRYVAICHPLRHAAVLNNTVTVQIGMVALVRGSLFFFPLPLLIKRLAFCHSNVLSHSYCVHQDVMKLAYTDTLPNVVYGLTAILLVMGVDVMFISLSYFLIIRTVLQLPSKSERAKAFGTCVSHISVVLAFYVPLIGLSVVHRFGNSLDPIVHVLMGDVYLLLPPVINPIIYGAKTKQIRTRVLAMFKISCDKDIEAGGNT
T1 sequence (Q9Z282 1-382): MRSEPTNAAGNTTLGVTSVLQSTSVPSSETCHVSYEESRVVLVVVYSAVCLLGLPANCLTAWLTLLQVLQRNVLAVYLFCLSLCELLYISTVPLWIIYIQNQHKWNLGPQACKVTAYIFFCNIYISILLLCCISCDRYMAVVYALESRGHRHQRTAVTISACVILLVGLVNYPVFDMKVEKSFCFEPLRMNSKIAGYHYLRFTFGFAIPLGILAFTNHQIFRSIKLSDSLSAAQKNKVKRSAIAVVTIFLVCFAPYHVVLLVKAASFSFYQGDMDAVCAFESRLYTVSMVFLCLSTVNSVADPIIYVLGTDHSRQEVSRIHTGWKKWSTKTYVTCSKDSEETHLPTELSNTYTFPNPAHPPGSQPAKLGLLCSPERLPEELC
Nature of the assay: Luciferase assay in transfected Hana3A cells. The settings on record: Hana3A cells cotransfected with Olfr78 and Gpr132 vs Olfr78 or Gpr132 alone, FIG. 6D. The method, then: Luciferase assays were performed using the Dual-Glo™ Luciferase Assay System (Promega, Madison, WI). Briefly, Mock-, Olfr78−, Gpr132−, or Olfr78/Gpr132 transiently transfected Hana3A cells were stimulated with various concentrations of sodium lactate diluted in CD293 medium at 37° C. for 4 h. The activity of firefly luciferase was normalized against that of Renilla luciferase. Luminescence was measured on a SpectraMax L microplate reader (Molecular Devices, San Jose, CA).

`NC(=O)C(=O)O` [OA, oxamic acid]: in the assay on lactate dehydrogenase, the “lactate in TCM” value was “almost completely depleted”.

For the molecule `CC(=O)O` [acetate], the M2 polarization result in the assay on BMDMs (Olfr78−/− BMDMs, FIGS. 4H-J) is reported as “did not induce M2 polarization”. Also, the “mRNA levels of M2 markers such as IL-4, IL-10, and TGF-β” value with BMDMs (WT BMDMs, FIGS. 4H-J) is recorded as “significantly (P<0.001) increased”.

On to lactate, for which, in assay [1] (FIG. 2 legend), the “M2 polarization of THP-1 human monocytes” value is “induces M2 polarization”. Further, in assay [1], the “M1 markers such as iNOS, CD86, TNF-α, and IL-12B” value is “did not up-regulate M2 markers such as Arg-1, CD163, CD206, and IL-10 (FIGS. 3D-H) or down-regulate M1 markers”; the “M2 markers such as Arg-1, CD163, CD206, and IL-10” value is recorded as “did not up-regulate”. The iNOS levels entry in assay [1] (THP-1 cells vs untreated, FIGS. 2D, 2E) was “decreased”. In addition, in assay [1] (THP-1 cells), the “protein and mRNA levels of OR51E2” value was “significantly (P<0.01) increased”; the “levels of M2 macrophage markers such as Arg1, CD206, CD163, and IL-10” value is “increased”. Moreover, the “levels of M1 macrophage markers such as CD86, TNF-α, and IL-12B” value in assay [1] (THP-1 cells, FIGS. 2I-K) is listed as “did not affect”. In addition, in the assay with BMDMs, the Olfr78 expression entry is recorded as “significantly increased”. The “mRNA levels of IL-4, IL-10, and TGF-β (lactate-induced)” value in the assay with BMDMs (Gpr132-depleted Olfr78−/− BMDMs, FIGS. 6G-I) is “further reduced”. Moreover, in the assay on BMDMs (Gpr132-depleted WT BMDMs, FIGS. 6G-J), the “Lactate-induced up-regulation of mRNA levels of M2 cytokines such as IL-4, IL-10, TGF-β, and Arg1” value was “significantly (P<0.01) reduced”. In addition, the “M2-specific and M1-specific markers” value in the assay on BMDMs (Olfr78−/− BMDMs vs untreated, FIGS. 1C-I) was “did not exhibit up-regulation of M2-specific markers or down-regulation of M1-specific markers”. In addition, the “protein level of CD206 (M2 marker)” value in the assay on BMDMs (WT BMDMs vs untreated, FIG. 1C) is “dramatically (P<0.001) higher”. Moreover, the “protein level of CD86 (M1 marker)” value in the assay on BMDMs (WT BMDMs vs untreated, FIG. 1D) is listed as “significantly lower”. For the same molecule, the “mRNA levels of IL-4, IL-10, and TGF-β (M2 markers)” value in the assay with BMDMs (WT BMDMs vs untreated, FIGS. 1E-G) is “dramatically (P<0.001) higher”. Moreover, in the assay on BMDMs (WT BMDMs vs untreated, FIGS. 1H and 1I), the “mRNA levels of IL-12 and IFN-γ (M1 markers)” value is “significantly lower”. For the same molecule, in the assay on BMDMs (WT BMDMs vs untreated, FIGS. 4B-E), the “M2 polarization markers, such as CD206, IL-4, IL-10, and TGF-0” value is “significant up-regulation”. For the same molecule, the “percentage of cells with an elongated shape” value in the assay on BMDMs (WT BMDMs vs untreated, FIGS. 4F, 4G) is “increase”.

`CC(O)C(=O)[O-].[Na+]` (stereo not drawn) [sodium lactate]: the Relative luciferase activity entry at Olfr78/Gpr132 was “significantly higher”.

B1: IL-4: recombinant interleukin-4 used to stimulate M2 polarization (protein, UniProt P05112 25-153, looked up)
Interleukin-4: HKCDITLQEIIKTLNSLTEQKTLCTELTVTDIFAASKNTTEKETFCRAATVLRQFYSHHEKDTRCLGATAQQFHRHKQLIRFLKRLDRNLWGLAGLNSCPVKEANQSTLENFLERLKTIMREKYSKCSS
In the case of B1, in assay [1], the “M1 markers such as iNOS, CD86, TNF-α, and IL-12B” value was “down-regulated”; the “M2 markers such as Arg-1, CD163, CD206, and IL-10” value was “still up-regulated”. In assay [1] (THP-1 cells), the “protein and mRNA levels of OR51E2” value is listed as “significantly (P<0.01) increased”; the “levels of M2 macrophage markers such as Arg1, CD206, CD163, and IL-10” value is “increased”. Moreover, in the assay on BMDMs, the Olfr78 expression entry is reported as “significantly increased”. Besides, in the assay with BMDMs (Olfr78−/− BMDMs, FIG. 1C), the CD206 entry was “still up-regulated”. Moreover, the CD86 entry with BMDMs (Olfr78−/− BMDMs, FIG. 1D) is reported as “down-regulated”. Moreover, the “protein level of CD206 (M2 marker)” value in the assay with BMDMs (WT BMDMs vs untreated, FIG. 1C) is “up-regulated”. The “protein level of CD86 (M1 marker)” value in the assay with BMDMs (WT BMDMs vs untreated, FIG. 1D) is “down-regulated”.
